The source of these data is US10981932B2, “Macrocyclic indole derivatives” (Bayer Aktiengesellschaft, priority 2016, dated 2021).

One assay concerns the target T1, BCL-2 (Homo sapiens, UniProt P10415).
T1 construct: BCL-2 (amino acids 1-211, C-terminal fused to a hexahistidine (6×His) tag); purchased BPS Bioscience (San Diego, Calif., USA); host or cells: E. coli
Nature of the assay: Protein-protein interaction assay BCL-2/Bad BH3 peptide (BCL-2 assay), TR-FRET. The assay is classed as binding. To be noted: His-BCL-2 / Bad BH3-derived peptide, median. The protocol: Protein-Protein Interaction Assay: BCL-2/Bad BH3 Peptide (BCL-2 Assay)
The dose-dependent inhibition by the compounds described in this invention of the interaction between BCL-2 and the BH3 domain of Bad (both human) was determined using a steady state binding competition assay with time-resolved fluorescence energy transfer (TR-FRET) readout. For that purpose BCL-2 (amino acids 1-211, C-terminal fused to a hexahistidine (6×His) tag and a synthetic Bad BH3-derived peptide of sequence Biotin-PEG2-PEG2-NLWAAQRYGRELRR-Nle-SDEFVDSFKK-amide (SEQ ID NO: 2) served as protein receptor and tracer ligand respectively. The recombinant BCL-2 protein (expressed in E. coli) was purchased from BPS Bioscience (San Diego, Calif., USA). The Bad BH3-derived peptide can be obtained from e.g. Biosyntan (Berlin, Germany).
In the assay 11 different concentrations of each compound (0.1 nM, 0.33 nM, 1.1 nM, 3.8 nM. 13 nM, 44 nM, 0.15 μM, 0.51 μM, 1.7 μM, 5.9 μM and 20 μM) were typically measured as duplicates in the same microtiter plate. For that, 100-fold concentrated DMSO solutions were prepared by serial dilutions (1:3.4) of a 2 mM stock solution in a clear, 384-well microtiter plate (Greiner Bio-One, Frickenhausen, Germany). From there, 50 nl were transferred in a dark test plate (Greiner Bio-One. Frickenhausen, Germany). The assay was initiated by addition of 2 μl of a 2,5-fold concentrated His-BCL-2 solution (usually for a 1 nM end concentration in 5 μl reaction volume) in aqueous assay buffer [50 mM Tris/HCl pH 7, 100 mM sodium chloride (NaCl), 50 mM potassium fluoride (KF), 0.005% Tween-20, 2 mM DTT, 0.1% bovine gamma globulin (BGG)] to the compounds in the assay plate. This was followed by a 10-minute incubation step at 22° C. for pre-equilibration of the putative complex between His-BCL-2 and the compounds.
The mixture was incubated in the dark for one hour at 22° C. and then overnight at 4° C. The formation of BCL-2/Bad complexes was determined by measuring the resonance energy transfer of the anti-His-Eu-cryptate antibody to the streptavidin-XL665 present in the reaction. For that purpose, the fluorescence emission at 620 nm and 665 nm after excitation at 330-350 nm was measured in a TR-FRET measuring instrument, for instance a Rubystar or a Pherastar (both from BMG Lab Technologies. Offenburg, Germany) or a Viewlux (Perkin-Elmer). The ratio of the emission at 665 nm and at 622 nm was used as indicator of the amount of BCL-2/Bad complexes present.
The resulting data (ratio) were normalized, taking 0% inhibition as the mean value of control measurements (usually 32 data points) where all reagents were included. In this case 50 nl DMSO were used instead of compounds. A 100% inhibition corresponded to the mean value of control measurements (usually 32 data points) where all reagents except BCL-2 were included. IC50 values were determined by regression analysis based on a 4 parameter equation (minimum, maximum, IC50, Hill; Y=Max+(Min−Max)/(1+(X/IC50)^Hill) using the Screener Software (Genedata).

The next assay concerns SUDHL10. Nature of the assay: Anti-proliferative effect (CellTiter-Glo, 72 h), SUDHL10. The assay is classed as cell-based. To be noted: SUDHL10 cells, antiproliferation, 72 h incubation, median, read-out: Antiproli SUDHL10 [M] (median). The essentials:
(§1)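 CellTiter-Glo luminescence readout of viability, taken on a time-zero plate at day 0 and on treated plates after 72 h incubation at 37 °C in a humidified incubator. Reagent incubation 10 min before reading.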

The test system of a further assay is OPM2. Nature of the assay: Anti-proliferative effect (CellTiter-Glo, 72 h), OPM2. In kind it is cell-based. To be noted: OPM2 cells, median, read-out: IC50 antiproliferation assay OPM2 [M] (median). A digest of the protocol:
as §1

The test system of another assay is MV-4-11. Nature of the assay: Anti-proliferative effect (CellTiter-Glo, 72 h), MV-4-11. The assay is classed as cell-based. To be noted: MV-4-11 cells, median, read-out: IC50 antiproliferation assay MV-4-11 [M] (median). A digest of the protocol:
as §1

The subject of another assay is SK-MEL-2. Nature of the assay: Anti-proliferative effect (CellTiter-Glo, 72 h), SK-MEL-2. To be noted: Homo sapiens, SK-MEL-2 cells, median, read-out: IC50 antiproliferation assay SK-MEL-2 [M] (median). The assay is classed as cell-based. As for the experimental part:
Assessment of the Anti-Proliferative Effect of Compounds in Different Cell Lines
(§2) The impact of compounds on the proliferation of different cell lines was assessed using the CellTiter-Glo® Luminescent Cell Viability reagent from Promega (G7573). Of note, SUDHL10 and SUDHL5 (DLBCL), NCI-H929 (Multiple Myeloma), A2780 (ovarian carcinoma) as well as MV-4-11(AML) cells are sensitive to MCL-1 inhibition.
(§3) In parallel, cells were plated in a reference (day 0) plate for time zero determination.
(§4) Rim wells were excluded. The cells were incubated for 72 h hours in a humidified incubator at 37° C. The day 0 plate was measured by adding 30 μl/well of CTG solution (CellTiter-Glo® Luminescent Cell Viability reagent, Promega G7573) to time zero wells in the reference plate followed by a 10 minutes incubation and luminescence reading at 0.1 ms, using the PHERAstar FS microplate reader (BMG Labtech).
(§5) After 72 h incubation, the treated plates were measured in the same way as the day 0 plate mentioned above.

A further assay concerns NCI-H1703. As to the kind of experiment: Anti-proliferative effect (CellTiter-Glo, 72 h), NCI-H1703. The assay is classed as cell-based. The conditions noted are these: Homo sapiens, NCI-H1703 cells, median, read-out: IC50 antiproliferation assay NCI-H1703 [M] (median). The protocol:
as §2, §3, §4, §5

Each structure is given as a SMILES string. Counter-ions that a name gives are not always drawn. Like-named read-outs stand apart in the source and are kept apart here.

T1 sequence (P10415 1-211): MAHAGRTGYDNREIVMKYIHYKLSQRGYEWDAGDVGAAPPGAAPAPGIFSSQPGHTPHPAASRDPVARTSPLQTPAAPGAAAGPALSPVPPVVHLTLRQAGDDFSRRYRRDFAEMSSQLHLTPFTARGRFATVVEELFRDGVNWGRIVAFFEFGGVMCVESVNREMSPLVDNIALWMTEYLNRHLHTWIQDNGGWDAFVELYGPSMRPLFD

Take `CN1CCCn2c(C(=O)O)c(CCCOc3cccc4ccccc34)c3cccc(c32)-c2c(COc3ccc(N4CCN(S(=O)(=O)N(C)C)CC4)cc3)nn(C)c2C1` (single isomer, unassigned; enantiomer 1) [Example 1-15, (+)-11-({4-[4-(dimethylsulfamoyl)piperazin-1-yl]phenoxy}methyl)-7,9-dimethyl-1-[3-(naphthalen-1-yloxy)propyl]-4,5,6,7,8,9-hexahydropyrazolo[3′,4′:7,8][1,5]diazecino[9,10,1-hi]indole-2-carboxylic Acid (Enantiomer 1)]: the IC50 against BCL-2 is > 20 µM; with SUDHL10 it was 1.56e-06 M; with OPM2 it was 1.91e-06 M; with MV-4-11 (Homo sapiens, MV4-11, 72 h), 3.52e-06 M; in the assay with SK-MEL-2, > 3.3e-05 M; in the assay with NCI-H1703, 1.1e-05 M.
Turning to `CCc1c2c(nn1C)CN(C)CCCn1c(C(=O)O)c(CCCOc3cccc4ccccc34)c3ccc(C)c-2c31` (single isomer, unassigned; enantiomer 1) [Example 145, 11-Ethyl-7,10,12-trimethyl-1-[3-(1-naphthyloxy)propyl]-4,5,6,7,8,10-hexahydropyrazolo[3′,4′:7,8][1,5]diazecino[9,10,1-hi]indole-2-carboxylic acid-N-ethylethanamine Salt (Enantiomer 1)], the IC50 at BCL-2 was > 20 µM; in the assay on SUDHL10, 4.25e-06 M; with OPM2 (Homo sapiens, OPM-2, 72 h), 3.22e-06 M; in the assay with MV-4-11 (Homo sapiens, MV4-11, 72 h) it was 4.3e-06 M; in the assay with SK-MEL-2, 1.17e-05 M; in the assay on NCI-H1703 it was 6.53e-06 M.
Take `CCc1c2c(nn1C)COCCCCn1c(C(=O)O)c(CCCOc3cccc4ccccc34)c3cccc-2c31` (single isomer, unassigned; enantiomer 1) [Example 148, 3-Ethyl-2-methyl-7-[3-(1-naphthyloxy)propyl]-2,10,11,12,13,15-hexahydropyrazolo[4′,3′:9,10][1,6]oxazacycloundecino[8,7,6-hi]indole-8-carboxylic acid-N-ethylethanamine Salt (Enantiomer 1)]: the IC50 was > 20 µM on BCL-2; 5.87e-06 M with SUDHL10 (Homo sapiens, SU-DHL10, 72 h); 2.74e-06 M with OPM2 (Homo sapiens, OPM-2, 72 h); 9.73e-07 M in the assay on MV-4-11 (Homo sapiens, MV4-11, 72 h); 2.67e-05 M with SK-MEL-2; 9.36e-06 M in the assay on NCI-H1703.
For the compound `CCc1c2c(nn1C)COCCCCn1c(C(=O)O)c(CCCOc3cccc4ccccc34)c3ccc(C)c-2c31` (single isomer, unassigned; enantiomer 1) [Example 154, 3-Ethyl-2,4-dimethyl-7-[3-(1-naphthyloxy)propyl]-2,10,11,12,13,15-hexahydropyrazolo[4′,3′:9,10][1,6]oxazacycloundecino[8,7,6-hi]indole-8-carboxylic acid-N-ethylethanamine Salt (Enantiomer 1)], the IC50 against BCL-2 was > 20 µM; in the assay with SUDHL10 (Homo sapiens, SU-DHL10, 72 h), 4.11e-06 M; with OPM2 (Homo sapiens, OPM-2, 72 h), 2e-06 M; in the assay on MV-4-11 (Homo sapiens, MV4-11, 72 h) it was 1.36e-06 M; in the assay on SK-MEL-2, 1.84e-05 M; in the assay on NCI-H1703 it was 6.84e-06 M.
Take `Cn1nc(COc2ccc(N3CCN(S(C)(=O)=O)CC3)cc2)c2c1COCCCCn1c(C(=O)O)c(CCCOc3cccc4ccccc34)c3cccc-2c31` (single isomer, unassigned; enantiomer 2) [Example 1-10, 1-methyl-3-({4-[4-(methylsulfonyl)piperazin-1-yl]phenoxy}methyl)-7-[3-(naphthalen-1-yloxy)propyl]-1,10,11,12,13,15-hexahydropyrazolo[4′,3′:9,10][1,6]oxazacycloundecino[8,7,6-hi]indole-8-carboxylic acid (enantiomer 2)]: the IC50 against BCL-2 was > 20 µM; in the assay on SUDHL10, 1.35e-06 M; with OPM2, 2.81e-06 M; in the assay with MV-4-11, 2.29e-06 M; with SK-MEL-2, 1.12e-05 M; in the assay with NCI-H1703, 5.52e-06 M.
`Cn1nc(COc2ccc(N3CCN(S(=O)(=O)C4CC4)CC3)cc2)c2c1COCCCCn1c(C(=O)O)c(CCCOc3cccc4ccccc34)c3cccc-2c31` (single isomer, unassigned; enantiomer 2) [Example 1-13, 3-({4-[4-(cyclopropylsulfonyl)piperazin-1-yl]phenoxy}methyl)-1-methyl-7-[3-(naphthalen-1-yloxy)propyl]-1,10,11,12,13,15-hexahydropyrazolo[4′,3′:9,10][1,6]oxazacycloundecino[8,7,6-hi]indole-8-carboxylic Acid (Enantiomer 2)]: the IC50 is > 20 µM against BCL-2; 1.38e-06 M in the assay on SUDHL10; 6.34e-07 M with OPM2; 1.35e-06 M in the assay on MV-4-11; 4.96e-06 M in the assay on SK-MEL-2; 2.67e-06 M in the assay with NCI-H1703.
On to `Cc1nn(C)c2c1-c1cccc3c(CCCOc4ccc(F)c5ccccc45)c(C(=O)O)n(c13)CCCCOC2` (single isomer, unassigned; enantiomer 2) [Example 023, 7-{3-[(4-fluoronaphthalen-1-yl)oxy]propyl}-1,3-dimethyl-1,10,11,12,13,15-hexahydropyrazolo[4′3′:9,10][1,6]oxazacycloundecino[8,7,6-hi]indole-8-carboxylic acid-N-ethylethanamine Salt (Enantiomer 2)], for which the IC50 is > 20 µM at BCL-2; 9.57e-06 M in the assay with SUDHL10; 6.79e-06 M in the assay with OPM2 (Homo sapiens, OPM-2, 72 h); 2.29e-06 M in the assay on MV-4-11 (Homo sapiens, MV4-11, 72 h).
Turning to `Cc1c2c(nn1CCN1CCOCC1)CN(C)CCCn1c(C(=O)O)c(CCCOc3cccc4ccccc34)c3cccc-2c31` (single isomer, unassigned; enantiomer 2) [Example 061, 7,11-dimethyl-10-[2-(morpholin-4-yl)ethyl]-1-[3-(naphthalen-1-yloxy)propyl]-4,5,6,7,8,10-hexahydropyrazolo[3′,4′:7,8][1,5]diazecino[9,10,1-hi]indole-2-carboxylic Acid (Enantiomer 2)], the IC50 on BCL-2 is > 20 µM; in the assay on SUDHL10 it was 8.37e-06 M; in the assay with OPM2, 2.51e-05 M; in the assay with MV-4-11 (Homo sapiens, MV4-11, 72 h) it was 8.02e-06 M.
